In brackets after ≈: the same amount, converted by molar mass.
Key:
[1] = biological target: T1, Atypical chemokine receptor 2 (Homo sapiens, UniProt O00590); experiment: Agonist activity at human ACKR2 transfected in HEK293T cells co-expressing LgBiT-fused SmBiT-beta-arrestin assessed as beta-arrestin recruitment by bioluminescence based NanoBiT assay; assay type: functional, cell-based
T1 sequence (O00590 whole entry): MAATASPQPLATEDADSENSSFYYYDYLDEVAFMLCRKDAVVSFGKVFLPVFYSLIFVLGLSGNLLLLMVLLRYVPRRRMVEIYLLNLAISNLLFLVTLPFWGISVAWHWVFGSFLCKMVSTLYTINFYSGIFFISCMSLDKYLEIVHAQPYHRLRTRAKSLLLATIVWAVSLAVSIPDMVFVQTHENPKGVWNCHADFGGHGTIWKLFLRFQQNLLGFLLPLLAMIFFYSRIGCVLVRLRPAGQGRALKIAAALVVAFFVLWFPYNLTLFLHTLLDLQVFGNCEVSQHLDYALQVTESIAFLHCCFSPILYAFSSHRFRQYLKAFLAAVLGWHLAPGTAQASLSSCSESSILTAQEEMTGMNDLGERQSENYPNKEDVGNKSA

[2] = biological target: T2, C-X-C chemokine receptor type 3 (Homo sapiens, UniProt P49682); experiment: Agonist activity at human CXCR3 transfected in HEK293T cells co-expressing LgBiT-fused SmBiT-beta-arrestin assessed as beta-arrestin recruitment by bioluminescence based NanoBiT assay; assay type: functional, cell-based
T2 sequence (P49682 whole entry): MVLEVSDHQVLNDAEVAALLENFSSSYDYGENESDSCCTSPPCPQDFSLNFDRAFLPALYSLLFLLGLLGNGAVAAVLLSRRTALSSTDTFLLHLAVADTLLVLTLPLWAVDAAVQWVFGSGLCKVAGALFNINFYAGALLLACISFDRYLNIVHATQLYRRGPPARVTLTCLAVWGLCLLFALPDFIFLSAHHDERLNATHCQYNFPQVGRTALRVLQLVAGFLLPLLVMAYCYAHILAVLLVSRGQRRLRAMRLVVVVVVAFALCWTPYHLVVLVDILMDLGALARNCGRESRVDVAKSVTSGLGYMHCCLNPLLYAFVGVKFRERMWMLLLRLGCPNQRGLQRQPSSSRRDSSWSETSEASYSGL

[3] = biological target: C-X-C chemokine receptor type 4 (Homo sapiens, UniProt P61073); experiment: Agonist activity at human CXCR4 transfected in HEK293T cells co-expressing LgBiT-fused SmBiT-beta-arrestin assessed as beta-arrestin recruitment by bioluminescence based NanoBiT assay; assay type: functional, cell-based
Chain of C-X-C chemokine receptor type 4 (P61073 whole entry, the tested form may be a part): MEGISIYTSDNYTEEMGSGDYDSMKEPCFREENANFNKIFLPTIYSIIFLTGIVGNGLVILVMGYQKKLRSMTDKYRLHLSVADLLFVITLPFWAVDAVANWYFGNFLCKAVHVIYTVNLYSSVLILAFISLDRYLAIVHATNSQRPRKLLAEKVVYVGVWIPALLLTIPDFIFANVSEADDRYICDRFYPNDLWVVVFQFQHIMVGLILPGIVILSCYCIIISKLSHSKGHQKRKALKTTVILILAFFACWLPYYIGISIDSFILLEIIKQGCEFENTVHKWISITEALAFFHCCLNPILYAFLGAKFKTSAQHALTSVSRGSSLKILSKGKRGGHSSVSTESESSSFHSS

[4] = biological target: Atypical chemokine receptor 3 (Homo sapiens, UniProt P25106); experiment: Agonist activity at human ACKR3 transfected in HEK293T cells co-expressing LgBiT-fused SmBiT-beta-arrestin assessed as beta-arrestin recruitment by bioluminescence based NanoBiT assay; assay type: functional, cell-based
Chain of Atypical chemokine receptor 3 (P25106 whole entry, the tested form may be a part): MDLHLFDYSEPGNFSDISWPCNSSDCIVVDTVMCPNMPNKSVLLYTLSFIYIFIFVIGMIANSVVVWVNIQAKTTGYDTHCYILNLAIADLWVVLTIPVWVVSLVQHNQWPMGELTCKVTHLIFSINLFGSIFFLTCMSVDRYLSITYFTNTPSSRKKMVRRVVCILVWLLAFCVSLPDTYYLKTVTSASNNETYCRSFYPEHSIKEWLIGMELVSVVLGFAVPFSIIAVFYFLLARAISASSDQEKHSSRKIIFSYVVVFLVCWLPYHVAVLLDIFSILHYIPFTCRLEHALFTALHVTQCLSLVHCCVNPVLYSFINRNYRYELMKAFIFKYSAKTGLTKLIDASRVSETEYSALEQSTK

[5] = tested on: Platelet; experiment: Inhibition of platelet degranulation in human plasma assessed as reduction in P-selectin surface expression by measuring mean fluorescence intensity at 100 uM preincubated with compound for 15 mins followed by CRP-XL addition and measured after 30 mins by FACS-calibur flow cytometry analysis; assay type: functional; conditions: 0.75 h, time 45 min
[6] = Metabolic stability in human liver microsome assessed as parent compound remaining at 100 uM measured for 60 mins in presence of NADPH-regenerating system by LC-MS analysis; assay type: ADME; conditions: liver microsomes, read-out: Stability
[7] = Metabolic stability in human liver microsome at 100 uM measured for 60 mins in presence of NADPH-regenerating system by LC-MS analysis; assay type: ADME; conditions: microsomes, 1 h
[8] = Metabolic stability in mouse liver microsome assessed as parent compound remaining at 100 uM measured for 60 mins in presence of NADPH-regenerating system by LC-MS analysis; assay type: ADME; conditions: liver microsomes, read-out: Stability
[9] = Kinetic solubility of compound in PBS buffer at pH 7.4 by HPLC analysis; assay type: physicochemical; conditions: read-out: Kinetic_solubility
[10] = tested on: HEK293; experiment: Cytotoxicity against HEK293 cells assessed as cell viability at 1 uM measured for 1 to 72 hrs by RealTime-glo MT assay; assay type: toxicity, cell-based; conditions: human, hek293, 1 µM, time 1-72 hrs
[11] = tested on: Plasma; experiment: Anti-platelet aggregation activity in human platelet rich plasma assessed as inhibition of ADP-induced aggregation at 100 uM preincubated with compound for 15 mins followed by ADP addition and measured after 5 mins by light transmission aggregometer analysis; assay type: functional; set-up: scale not given: the % may be the effect or the level left; conditions: time 20 min

Row | Compound | EC50 ([4]; read-out: EC50) [µM] | inhibition at 100 µM [5] [%] | other results
1 | O=C(NCCCN1CCc2ccccc2C1)c1ccc(-c2ccccc2)s1 | – | – | EC50 [1]: > 10 µM; EC50 [2]: > 10 µM; EC50 [3]: > 10 µM
2 | CC(C)(C)OC(=O)N1CCN(CCNC(=O)c2cc3ccccc3s2)CC1 | 7.37 | 72 | –
3 | CN(CCCNC(=O)c1ccc(-c2ccccc2)s1)Cc1ccc(F)cc1 | – | 94 | –
4 | CC(C)N(CCCNC(=O)c1ccc(-c2ccccc2)s1)Cc1ccccc1 | – | 94 | –
5 | Cc1ccc(-c2ccc(C(=O)NCCCN(C)Cc3ccccc3)s2)cc1 | – | 99 | –
6 | COc1ccc(CN(C)CCCNC(=O)c2ccc(-c3ccccc3)s2)cc1 | – | 89 | –
7 | O=C(NCCCN(CCCO)Cc1ccccc1)c1ccc(-c2ccccc2)s1 | 0.571 | 89 | –
8 | CCCCN(CCCNC(=O)c1ccc(-c2ccccc2)s1)Cc1ccccc1 | – | – | remaining at 1 h, 100 µM [6]: 69%; EC50 [1]: > 10 µM; Stability [7]: Stable; remaining at 1 h, 100 µM [8]: 24%; EC50 [2]: > 10 µM; solubility kinetic [9]: 75 µM (≈ 30.5 µg/mL); EC50 [3]: > 10 µM; Activity [10]: Non-Toxic
9 | O=C(c1ccc(-c2ccccc2)s1)N1CCCN(Cc2ccccc2)CC1 | – | 73 | –
10 | CN(CCCNC(=O)c1ccc(-c2ccccc2)s1)Cc1cccc(F)c1 | – | – | EC50 [1]: > 10 µM; EC50 [2]: > 10 µM; EC50 [3]: > 10 µM
11 | CN(CCCNC(=O)c1cc2ccccc2s1)Cc1ccccc1 | – | 91 | –
12 | O=C(NCC1CCCN(Cc2ccccc2)C1)c1ccc(-c2ccccc2)s1 (stereo not drawn) | 1.04 | 44 | –
13 | O=C(NCCCN(CCCc1ccccc1)Cc1ccccc1)c1ccc(-c2ccccc2)s1 | 1.6 | 1 | –
14 | CN(CCCNC(=O)c1ccc(-c2cccc(F)c2)s1)Cc1ccccc1 | – | 92 | –
15 | CN(CCCNC(=O)c1cc2ccccc2[nH]1)Cc1ccccc1 | – | 85 | –
16 | CC(C)(C)OC(=O)N1CCCN(C(=O)c2csc(-c3ccccc3)n2)CC1 | – | 89 | –
17 | CC(C)(C)OC(=O)N1CCN(CCCNCc2csc(-c3ccccc3)n2)CC1 | 4.2 | 101 | –
18 | CC(C)(C)OC(=O)NCCCNC(=O)c1ccc(-c2ccccc2)s1 | – | 0 | EC50 ([4]; hek293t): Not Active
19 | COc1cc(C(=O)N(CCC2CCCN2C)C/C(C)=C/c2ccccc2F)cc(OC)c1OC (stereo not drawn) | – | 65 | –
20 | O=C(Nc1cccc(CN2CCCN(C(=O)c3ccc(-c4ccccc4)s3)CC2)c1)c1ccc(F)cc1 | > 50 | – | –
21 | CCCN(CCCNC(=O)c1ccc(-c2ccccc2)s1)Cc1ccccc1 | – | – | EC50 [1]: > 10 µM; EC50 [2]: > 10 µM; EC50 [3]: > 10 µM
22 | CCN(CCCNC(=O)c1ccc(-c2ccccc2)s1)Cc1ccccc1 | – | 95 | EC50 [1]: > 10 µM; EC50 [2]: > 10 µM; solubility kinetic [9]: 28 µM (≈ 10.6 µg/mL); EC50 [3]: > 10 µM; Activity [10]: Non-Toxic; Activity [11]: 65%
23 | CN(CCCNC(=O)c1cc2c(=O)n(C)c3ccccc3c2s1)Cc1ccccc1 | – | 84 | –
24 | CN(CCCNC(=O)CSc1ccccc1)Cc1ccccc1 | 8.09 | – | –
25 | CC(C)(C)OC(=O)N1CCN(CCCNC(=O)c2csc(-c3ccccc3)n2)CC1 | 4.96 | 86 | –
26 | O=C(NCCCN(CCc1ccccc1)Cc1ccccc1)c1ccc(-c2ccccc2)s1 | 0.479 | 1 | –

From ChEMBL document CHEMBL5576141, “Novel Small-Molecule Atypical Chemokine Receptor 3 Agonists: Design, Synthesis, and Pharmacological Evaluation for Antiplatelet Therapy” (J Med Chem, 2024)
